Measured values from ChEMBL document CHEMBL3991601, “The target landscape of clinical kinase drugs” (Science, 2017).
Calls of active or inactive are those of the source. Cut-off read from the data, not from the text of the source, for most assays here: actives have a measured Kd and inactives only a lower limit.

Assays:
[1] = target: Tyrosine-protein kinase JAK1 (Homo sapiens, UniProt P23458)
[2] = target: T1, Serine/threonine-protein kinase TBK1 (Homo sapiens, UniProt Q9UHD2)
T1 sequence (Q9UHD2 whole entry): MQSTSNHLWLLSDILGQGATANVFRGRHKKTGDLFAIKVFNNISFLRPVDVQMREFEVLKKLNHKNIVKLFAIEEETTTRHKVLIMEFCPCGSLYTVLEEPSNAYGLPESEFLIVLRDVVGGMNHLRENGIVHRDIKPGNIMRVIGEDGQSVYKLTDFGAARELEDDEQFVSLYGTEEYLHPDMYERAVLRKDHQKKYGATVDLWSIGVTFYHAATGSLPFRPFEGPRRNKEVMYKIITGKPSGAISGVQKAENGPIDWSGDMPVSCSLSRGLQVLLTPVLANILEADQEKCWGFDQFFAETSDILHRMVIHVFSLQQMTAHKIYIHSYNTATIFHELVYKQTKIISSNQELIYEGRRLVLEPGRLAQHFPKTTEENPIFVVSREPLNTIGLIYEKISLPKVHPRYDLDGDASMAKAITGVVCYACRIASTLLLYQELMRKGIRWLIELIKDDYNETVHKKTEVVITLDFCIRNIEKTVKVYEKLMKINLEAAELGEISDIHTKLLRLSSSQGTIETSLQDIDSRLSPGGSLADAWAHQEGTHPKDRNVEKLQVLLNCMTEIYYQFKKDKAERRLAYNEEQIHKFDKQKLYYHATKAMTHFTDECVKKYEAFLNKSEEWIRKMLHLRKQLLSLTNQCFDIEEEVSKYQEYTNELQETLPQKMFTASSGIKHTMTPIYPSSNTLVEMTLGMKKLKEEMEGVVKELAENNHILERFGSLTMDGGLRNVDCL

Ephrin type-B receptor 2 = target: T2, Ephrin type-B receptor 2 (Homo sapiens, UniProt P29323)
T2 sequence (P29323 whole entry): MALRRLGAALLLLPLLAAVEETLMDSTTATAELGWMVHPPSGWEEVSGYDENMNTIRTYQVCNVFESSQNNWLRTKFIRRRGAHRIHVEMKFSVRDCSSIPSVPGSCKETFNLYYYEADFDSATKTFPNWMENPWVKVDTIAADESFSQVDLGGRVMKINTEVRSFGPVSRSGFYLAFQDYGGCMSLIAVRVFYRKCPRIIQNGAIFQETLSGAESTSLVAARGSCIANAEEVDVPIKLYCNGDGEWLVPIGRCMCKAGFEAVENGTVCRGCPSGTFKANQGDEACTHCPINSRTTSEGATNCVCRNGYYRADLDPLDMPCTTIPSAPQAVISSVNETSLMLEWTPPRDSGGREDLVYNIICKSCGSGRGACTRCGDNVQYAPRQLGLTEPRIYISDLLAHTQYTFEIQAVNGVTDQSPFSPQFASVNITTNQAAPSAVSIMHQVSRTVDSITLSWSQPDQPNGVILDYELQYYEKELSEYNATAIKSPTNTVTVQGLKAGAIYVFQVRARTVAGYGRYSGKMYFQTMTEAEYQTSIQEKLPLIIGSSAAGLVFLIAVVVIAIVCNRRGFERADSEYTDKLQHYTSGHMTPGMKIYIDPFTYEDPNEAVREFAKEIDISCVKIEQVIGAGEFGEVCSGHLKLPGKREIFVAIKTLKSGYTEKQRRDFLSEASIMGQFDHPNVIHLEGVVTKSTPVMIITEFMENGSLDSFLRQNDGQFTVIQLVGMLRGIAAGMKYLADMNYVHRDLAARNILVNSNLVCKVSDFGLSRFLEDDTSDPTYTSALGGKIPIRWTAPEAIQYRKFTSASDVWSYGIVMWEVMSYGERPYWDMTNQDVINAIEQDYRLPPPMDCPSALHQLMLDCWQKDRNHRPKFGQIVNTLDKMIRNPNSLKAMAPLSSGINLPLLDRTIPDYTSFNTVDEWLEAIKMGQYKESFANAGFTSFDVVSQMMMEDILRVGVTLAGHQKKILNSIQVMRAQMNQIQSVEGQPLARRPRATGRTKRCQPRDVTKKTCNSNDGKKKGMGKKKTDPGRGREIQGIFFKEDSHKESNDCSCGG

[3] = target: Ribosomal protein S6 kinase alpha-6 (Homo sapiens, UniProt Q9UK32)
[4] = target: Serine/threonine-protein kinase pim-1 (Homo sapiens, UniProt P11309)
[5] = target: T3, Tyrosine-protein kinase Tec (Homo sapiens, UniProt P42680)
T3 sequence (P42680 whole entry): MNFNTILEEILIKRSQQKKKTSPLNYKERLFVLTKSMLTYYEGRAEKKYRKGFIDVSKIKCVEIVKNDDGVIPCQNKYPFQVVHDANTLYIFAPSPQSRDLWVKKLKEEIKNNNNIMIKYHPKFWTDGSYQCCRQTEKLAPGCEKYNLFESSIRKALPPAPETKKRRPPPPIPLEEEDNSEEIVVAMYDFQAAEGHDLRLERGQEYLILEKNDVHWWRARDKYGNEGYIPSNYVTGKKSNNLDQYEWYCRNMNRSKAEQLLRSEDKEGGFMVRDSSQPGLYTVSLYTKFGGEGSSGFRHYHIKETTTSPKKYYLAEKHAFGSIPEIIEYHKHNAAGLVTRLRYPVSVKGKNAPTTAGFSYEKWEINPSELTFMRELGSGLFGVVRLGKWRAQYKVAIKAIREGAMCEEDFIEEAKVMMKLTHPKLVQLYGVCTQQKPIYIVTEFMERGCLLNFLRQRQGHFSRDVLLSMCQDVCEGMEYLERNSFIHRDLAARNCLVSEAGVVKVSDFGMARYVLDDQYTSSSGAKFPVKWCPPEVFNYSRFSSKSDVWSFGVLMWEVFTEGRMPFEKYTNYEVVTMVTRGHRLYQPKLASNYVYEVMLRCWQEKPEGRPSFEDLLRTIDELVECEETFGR

[6] = target: T4, Serine/threonine-protein kinase STK11 (Homo sapiens, UniProt Q15831)
T4 sequence (Q15831 whole entry): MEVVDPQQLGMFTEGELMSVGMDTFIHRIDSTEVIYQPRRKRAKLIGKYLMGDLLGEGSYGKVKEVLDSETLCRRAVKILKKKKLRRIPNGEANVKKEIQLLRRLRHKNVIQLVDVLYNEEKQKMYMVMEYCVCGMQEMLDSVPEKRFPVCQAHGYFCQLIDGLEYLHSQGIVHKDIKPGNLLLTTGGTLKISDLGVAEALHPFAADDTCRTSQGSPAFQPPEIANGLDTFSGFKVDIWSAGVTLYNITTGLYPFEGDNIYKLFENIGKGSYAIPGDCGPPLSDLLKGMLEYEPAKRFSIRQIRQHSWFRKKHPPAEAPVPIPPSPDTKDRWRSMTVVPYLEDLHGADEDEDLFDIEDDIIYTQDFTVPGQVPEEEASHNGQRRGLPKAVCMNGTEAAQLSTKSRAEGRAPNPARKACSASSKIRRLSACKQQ
Note: in the data inactive means no Kd found up to 30 µM.

Serine/threonine-protein kinase pim-1, sequence (P11309 whole entry): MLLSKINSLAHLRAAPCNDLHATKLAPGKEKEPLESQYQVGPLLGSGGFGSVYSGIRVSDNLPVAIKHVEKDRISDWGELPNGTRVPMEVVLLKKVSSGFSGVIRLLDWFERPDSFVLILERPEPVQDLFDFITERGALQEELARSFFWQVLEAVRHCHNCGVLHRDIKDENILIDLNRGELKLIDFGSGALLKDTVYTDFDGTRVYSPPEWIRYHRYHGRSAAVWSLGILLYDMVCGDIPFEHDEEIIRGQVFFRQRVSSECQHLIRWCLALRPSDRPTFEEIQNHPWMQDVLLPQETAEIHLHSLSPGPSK
Tyrosine-protein kinase JAK1, sequence (P23458 whole entry): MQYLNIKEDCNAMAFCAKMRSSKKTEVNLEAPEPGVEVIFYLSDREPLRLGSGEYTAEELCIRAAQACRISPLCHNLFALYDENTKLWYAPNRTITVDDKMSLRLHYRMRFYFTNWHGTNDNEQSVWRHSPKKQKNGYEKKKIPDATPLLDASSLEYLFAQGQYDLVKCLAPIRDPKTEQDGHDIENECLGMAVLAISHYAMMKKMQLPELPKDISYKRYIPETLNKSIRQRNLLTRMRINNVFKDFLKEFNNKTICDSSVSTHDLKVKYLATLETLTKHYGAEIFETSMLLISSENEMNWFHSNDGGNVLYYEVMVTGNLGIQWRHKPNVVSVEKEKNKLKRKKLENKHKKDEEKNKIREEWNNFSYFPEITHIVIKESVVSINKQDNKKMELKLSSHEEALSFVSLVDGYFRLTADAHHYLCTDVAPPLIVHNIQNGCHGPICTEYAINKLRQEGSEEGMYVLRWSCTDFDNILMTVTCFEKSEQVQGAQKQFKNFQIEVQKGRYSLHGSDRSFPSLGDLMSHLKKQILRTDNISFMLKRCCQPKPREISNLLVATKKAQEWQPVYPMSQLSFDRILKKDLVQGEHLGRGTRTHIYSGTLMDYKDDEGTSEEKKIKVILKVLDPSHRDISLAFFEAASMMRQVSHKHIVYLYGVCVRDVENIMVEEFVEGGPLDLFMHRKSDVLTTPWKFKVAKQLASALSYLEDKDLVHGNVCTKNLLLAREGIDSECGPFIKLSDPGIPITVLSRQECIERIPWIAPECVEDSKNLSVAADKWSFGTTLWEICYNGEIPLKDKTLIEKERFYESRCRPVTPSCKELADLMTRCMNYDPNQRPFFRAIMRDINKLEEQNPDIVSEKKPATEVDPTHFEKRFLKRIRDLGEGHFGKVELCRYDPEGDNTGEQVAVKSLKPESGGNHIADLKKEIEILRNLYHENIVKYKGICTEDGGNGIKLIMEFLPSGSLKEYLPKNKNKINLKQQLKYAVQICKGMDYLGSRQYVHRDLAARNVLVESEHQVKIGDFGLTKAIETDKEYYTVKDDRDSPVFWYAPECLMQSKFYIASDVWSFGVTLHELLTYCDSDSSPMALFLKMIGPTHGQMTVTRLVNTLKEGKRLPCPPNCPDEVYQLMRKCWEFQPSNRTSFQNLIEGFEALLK
Ribosomal protein S6 kinase alpha-6, sequence (Q9UK32 whole entry): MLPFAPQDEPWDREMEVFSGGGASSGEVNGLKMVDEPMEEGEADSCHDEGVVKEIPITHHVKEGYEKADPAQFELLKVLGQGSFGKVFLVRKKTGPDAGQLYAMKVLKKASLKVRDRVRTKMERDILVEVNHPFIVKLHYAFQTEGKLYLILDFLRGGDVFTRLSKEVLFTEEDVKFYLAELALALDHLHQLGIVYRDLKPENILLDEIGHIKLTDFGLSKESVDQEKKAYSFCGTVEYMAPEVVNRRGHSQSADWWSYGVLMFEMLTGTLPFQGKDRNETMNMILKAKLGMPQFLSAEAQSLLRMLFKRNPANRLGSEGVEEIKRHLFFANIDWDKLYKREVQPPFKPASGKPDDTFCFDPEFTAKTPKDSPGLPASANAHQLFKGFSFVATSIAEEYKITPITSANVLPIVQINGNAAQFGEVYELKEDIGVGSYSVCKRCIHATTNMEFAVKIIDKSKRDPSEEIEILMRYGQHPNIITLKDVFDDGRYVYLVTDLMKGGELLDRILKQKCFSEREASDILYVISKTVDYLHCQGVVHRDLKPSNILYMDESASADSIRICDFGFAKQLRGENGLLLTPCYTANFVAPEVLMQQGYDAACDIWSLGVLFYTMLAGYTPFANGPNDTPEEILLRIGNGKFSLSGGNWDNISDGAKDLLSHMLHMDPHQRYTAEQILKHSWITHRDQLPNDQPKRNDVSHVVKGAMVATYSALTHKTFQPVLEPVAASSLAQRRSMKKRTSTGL

| Kd [1] | Kd [2] | Kd (Ephrin type-B receptor 2) | Kd [3] | Kd [4] | Kd [5] | Kd [6] | Compound |
| --- | --- | --- | --- | --- | --- | --- | --- |
| > 30 µM (inactive) | > 30 µM (inactive) | > 30 µM (inactive) | > 30 µM (inactive) | > 30 µM (inactive) | > 30 µM (inactive) | > 30 µM (inactive) | COc1cccc(Nc2ncnn3ccc(CN4CC[C@@H](N)[C@H](O)C4)c23)c1 [BMS-690514] |
| > 30 µM (inactive) | > 30 µM (inactive) | > 30 µM (inactive) | > 30 µM (inactive) | > 30 µM (inactive) | > 30 µM (inactive) | > 30 µM (inactive) | O[C@H]1CC[C@H](Nc2ncc3nc(Nc4c(F)cc(F)cc4F)n([C@H]4CCOC4)c3n2)CC1 [TANZISERTIB] |
| > 30 µM (inactive) | > 30 µM (inactive) | 1.3 µM (active) | > 30 µM (inactive) | > 30 µM (inactive) | > 30 µM (inactive) | > 30 µM (inactive) | Cc1cc(-c2cc(OC(=O)c3ccccc3)ccc2Cl)cc2nnc(Nc3ccc(OCCN4CCCC4)cc3)nc12 [TG100-801] |
| > 30 µM (inactive) | > 30 µM (inactive) | > 30 µM (inactive) | > 30 µM (inactive) | > 30 µM (inactive) | > 30 µM (inactive) | > 30 µM (inactive) | FC(F)(F)c1ccc(CNc2ccc(Cc3c[nH]c4ncc(Cl)cc34)cn2)cn1 [PEXIDARTINIB] |
| > 30 µM (inactive) | > 30 µM (inactive) | > 30 µM (inactive) | > 30 µM (inactive) | 0.022 µM (active) | > 30 µM (inactive) | > 30 µM (inactive) | O=c1[nH]c([C@@H]2CCCN2)nc2c1oc1ccc(Cl)cc12 |
| > 30 µM (inactive) | > 30 µM (inactive) | > 30 µM (inactive) | > 30 µM (inactive) | > 30 µM (inactive) | > 30 µM (inactive) | > 30 µM (inactive) | Cc1cc(C(=O)Nc2cc(Oc3ccc4nc(NC(=O)C5CC5)cn4n3)ccc2C)n(C)n1 [TAK-593] |
| > 30 µM (inactive) | > 30 µM (inactive) | > 30 µM (inactive) | > 30 µM (inactive) | > 30 µM (inactive) | > 30 µM (inactive) | > 30 µM (inactive) | Cn1c(=O)c(F)c(Nc2ccc(I)cc2F)c2c(=O)n(C[C@@H](O)CO)cnc21 [TAK-733] |
| > 30 µM (inactive) | > 30 µM (inactive) | > 30 µM (inactive) | > 30 µM (inactive) | > 30 µM (inactive) | 0.288 µM (active) | > 30 µM (inactive) | C=CC(=O)Nc1cccc(Nc2nc(Nc3ccc(N4CCN(C(C)=O)CC4)cc3OC)ncc2C(F)(F)F)c1 [ROCILETINIB] |
| > 30 µM (inactive) | > 30 µM (inactive) | > 30 µM (inactive) | > 30 µM (inactive) | > 30 µM (inactive) | > 30 µM (inactive) | > 30 µM (inactive) | COc1cccc2cc(-c3nc([C@H]4CC[C@H](C(=O)O)CC4)n4ncnc(N)c34)[nH]c12 [OSI-027] |
| > 30 µM (inactive) | > 30 µM (inactive) | > 30 µM (inactive) | > 30 µM (inactive) | > 30 µM (inactive) | > 30 µM (inactive) | > 30 µM (inactive) | O=S(=O)(c1cccc2c(O)nccc12)N1CCCNCC1 [HYDROXYFASUDIL] |
| > 30 µM (inactive) | > 30 µM (inactive) | > 30 µM (inactive) | > 30 µM (inactive) | > 30 µM (inactive) | > 30 µM (inactive) | > 30 µM (inactive) | CC[C@@](C)(Nc1ccnc(-c2c[nH]c3ncccc23)n1)C(=O)NCC(F)(F)F [DECERNOTINIB] |
| > 30 µM (inactive) | > 30 µM (inactive) | > 30 µM (inactive) | > 30 µM (inactive) | > 30 µM (inactive) | > 30 µM (inactive) | > 30 µM (inactive) | CCc1cc2c(cc1N1CCC(N3CCOCC3)CC1)C(C)(C)c1[nH]c3cc(C#N)ccc3c1C2=O [ALECTINIB] |

| Compound | Kd [1] | Kd [2] | Kd (Ephrin type-B receptor 2) | Kd [3] | Kd [4] | Kd [5] | Kd [6] |
| --- | --- | --- | --- | --- | --- | --- | --- |
| COc1cc(F)c(F)c(Nc2ccc(I)cc2F)c1NS(=O)(=O)C1(C[C@H](O)CO)CC1 [REFAMETINIB] | > 30 µM (inactive) | > 30 µM (inactive) | > 30 µM (inactive) | > 30 µM (inactive) | > 30 µM (inactive) | > 30 µM (inactive) | > 30 µM (inactive) |
| CC1(COc2ccc3c(c2)ncn3-c2ccc3cccc(N4CCC(N)CC4)c3n2)COC1 [CRENOLANIB] | > 30 µM (inactive) | > 30 µM (inactive) | > 30 µM (inactive) | 1.98 µM (active) | > 30 µM (inactive) | > 30 µM (inactive) | > 30 µM (inactive) |
| CNC(=O)c1ccc(Nc2ncc(C(F)(F)F)c(NCc3nccnc3N(C)S(C)(=O)=O)n2)cc1 [DEFACTINIB] | > 30 µM (inactive) | > 30 µM (inactive) | > 30 µM (inactive) | > 30 µM (inactive) | > 30 µM (inactive) | > 30 µM (inactive) | > 30 µM (inactive) |
| CCc1nc(C(N)=O)c(Nc2ccc(N3CCC(N4CCN(C)CC4)CC3)c(OC)c2)nc1NC1CCOCC1 [GILTERITINIB] | > 30 µM (inactive) | > 30 µM (inactive) | > 30 µM (inactive) | > 30 µM (inactive) | > 30 µM (inactive) | > 30 µM (inactive) | > 30 µM (inactive) |
| COCCN1CCN(Cc2ccc(-c3n[nH]c4c3C(=O)c3c(NC(=O)NN5CCOCC5)cccc3-4)cc2)CC1 [RGB-286638] | 0.139 µM (active) | 2.01 µM (active) | > 30 µM (inactive) | > 30 µM (inactive) | > 30 µM (inactive) | > 30 µM (inactive) | > 30 µM (inactive) |
